Laboratory results taken from ChEMBL document CHEMBL1136017, “Computational studies on tetrahydropyrimidine-2-one HIV-1 protease inhibitors: improving three-dimensional quantitative structure-activity relationship comparative molecular field analysis models by inclusion of calculated inhibitor- and receptor-based properties” (J Med Chem, 2002).
pKi: −log10 of the molar value.

The compounds below were run against Human immunodeficiency virus type 1 protease (Human immunodeficiency virus 1, UniProt Q72874) (assay: Inhibitory activity against HIV-1 protease).

Row | SMILES | pKi
1 | Cc1ccc(C(=O)Nc2cccc(CN3C(=O)N(Cc4cccc(NC(=O)c5ccc(C)cn5)c4)[C@H](Cc4ccccc4)[C@H](O)[C@H]3CCc3ccccc3)c2)nc1 | 10.10
2 | Nc1cccc(CN2C(=O)N[C@H](Cc3ccccc3)[C@H](O)[C@H]2CCc2ccccc2)c1 | 8.21
3 | Nc1cccc(CN2C(=O)N[C@H](CCc3ccccc3)[C@@H](O)[C@H]2Cc2ccccc2)c1 | 6.80
4 | O=C(Nc1cccc(CN2C(=O)N(Cc3cccc(NC(=O)c4nccs4)c3)[C@H](Cc3ccccc3)[C@H](O)[C@H]2CCc2ccccc2)c1)c1nccs1 | 10.52
5 | N/C(=N\O)c1cccc(CN2C(=O)N[C@H](CCc3ccccc3)[C@@H](O)[C@H]2Cc2ccccc2)c1 | 9.62
